This is an account of results in patent US10828317B2, “Method of treating bacterial infections” (priority 2016, dated 2020).

≈ marks a conversion by molar mass, not a printed value. Where “and” joins values, the source holds several entries; their conditions need not be identical. Equal values may be shown once. Read-outs that look alike come from different tables or passages of the source.

Assay [1] has as its system K. pneumoniae EN0262. The conditions noted are these: commercial antibiotics; data provided by IMBIM, BMC, Uppsala University; cited from earlier work.
The test system of assay [2] is S. aureus strain no 13. The experiment in a line: MIC vs S. aureus LMG 15975, MRSA. As to conditions: for MIC BrdUrd: 2 μg/ml of trimethoprim; for MIC: Staphylococcus aureus.
Assay [3] relates to E. coli. Put plainly: Murine peritonitis model. Type of assay: in vivo, mice. More on the design: score at sampling: scale not given here. The conditions noted are these: Ciprofloxacin 14 mg/kg, per mouse.

In the case of `C[C@H]1[C@H](NC(=O)/C(=N\OC(C)(C)C(=O)O)c2csc(N)n2)C(=O)N1S(=O)(=O)O` [ATM, aztreonam], the MIC in assay [1] was more than 16 µg/mL.
For `O=c1[nH]c(=O)n([C@H]2C[C@H](O)[C@@H](CO)O2)cc1Br` [BrdUrd], the “MIC BrdUrd” value in assay [2] (uridine 10 μg/ml) and in assay [2] (uridine 100 μg/ml) was not above 2 µg/mL throughout.
As to `CO/N=C(\C(=O)N[C@@H]1C(=O)N2C(C(=O)O)=C(COC(C)=O)CS[C@H]12)c1csc(N)n1` [CTX, cefotaxime], in assay [1], the MIC is more than 32 µg/mL.
As for `O=C(O)c1cn(C2CC2)c2cc(N3CCNCC3)c(F)cc2c1=O` [Ciprofloxacin, ciprofloxacin], in assay [3], the “CFU/ml PF” value is 1.75E+03 CFU/ml and 2.50E+02 CFU/ml and 1.00E+03 CFU/ml (2×); the “log CFU/ml PF” value is 3.24 log CFU/ml and 2.40 log CFU/ml and 3.00 log CFU/ml (2×); the score at sampling amounted to 0. In addition, in assay [1], the MIC was more than 2 µg/mL.
As for `CO/N=C(\C(=O)N[C@@H]1C(=O)N2C(C(=O)[O-])=C(C[N+]3(C)CCCC3)CS[C@H]12)c1csc(N)n1` [FEP, cefepime], in assay [1], the MIC is more than 16 µg/mL.
With `COc1cc(Cc2cnc(N)nc2N)c2c(c1OC)OC(C1CC1)C=C2` (centres unmarked) [Iclaprim, iclaprim], the MIC in assay [2] (NO13, read-out: MIC Iclaprim, Uridine 0 μg/ml) was more than 16 µg/mL; in assay [2] (NO13, read-out: MIC Iclaprim, Uridine 100 μg/ml), more than 16 µg/mL.
In the case of `C[C@@H](O)[C@H]1C(=O)N2C(C(=O)O)=C(S[C@@H]3CN[C@H](C(=O)N(C)C)C3)[C@H](C)[C@H]12` [MEM, meropenem], the MIC in assay [1] was more than 8 µg/mL.
As to `CN(C)c1cc(NC(=O)CNC(C)(C)C)c(O)c2c1C[C@H]1C[C@H]3[C@H](N(C)C)C(O)=C(C(N)=O)C(=O)[C@@]3(O)C(O)=C1C2=O` [TGC, tigecycline], in assay [1], the MIC was 2 µg/mL (≈ 3.41 µM).
In the case of colistin [CST], the MIC in assay [1] is 1 µg/mL.
